SMILES strings stand for the structures.

In this assay the target is T1, Human M4 (Homo sapiens, UniProt P08173).
T1 construct: expressed in transfected cells
T1 sequence (P08173 1-479): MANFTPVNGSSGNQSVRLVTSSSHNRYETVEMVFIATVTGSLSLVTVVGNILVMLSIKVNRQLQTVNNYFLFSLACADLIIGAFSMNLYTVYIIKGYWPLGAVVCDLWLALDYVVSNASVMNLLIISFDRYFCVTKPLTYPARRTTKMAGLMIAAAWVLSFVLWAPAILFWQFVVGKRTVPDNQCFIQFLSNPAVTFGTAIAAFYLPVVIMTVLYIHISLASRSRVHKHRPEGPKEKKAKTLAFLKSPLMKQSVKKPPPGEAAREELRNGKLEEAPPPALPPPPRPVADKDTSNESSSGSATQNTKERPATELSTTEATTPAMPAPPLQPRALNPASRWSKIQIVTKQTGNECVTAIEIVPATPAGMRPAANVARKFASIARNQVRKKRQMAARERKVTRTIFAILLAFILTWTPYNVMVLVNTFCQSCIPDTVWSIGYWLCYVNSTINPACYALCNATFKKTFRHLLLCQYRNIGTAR
Kind of assay: mAChR M4 cell-based functional assay (calcium flux, PAM mode). Conditions: hM4-Gqi5 CHO-K1 cells; for Emax at 30 µM: CHO-K1, % ACh maximum at 30 μM; for EC50: concentration-dependent increase in the EC20 acetylcholine response. The essentials:
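CHO-K1 cells stably co-expressing human M4 and chimeric Gqi5, Fluo-4 loaded; compound added first (11-point, 1:3 CRC), then EC20 acetylcholine at 144 s and EC80 at 230 s. PAM activity read on FDSS as concentration-dependent increase of EC20 ACh calcium response; EC50 and Emax from four-parameter logistic fit.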

As to `[2H]C1([2H])Oc2ccc(OC3CCN(c4nn5c(=O)cc(C(C)C)nc5c(C)c4C)CC3)cc2OC1([2H])[2H]` [Compound 99, 7-(4-((2,3-dihydrobenzo[b][1,4]dioxin-6-yl-2,2,3,3-d4)oxy)piperidin-1-yl)-2-isopropyl-8,9-dimethyl-4H-pyrimido[1,2-b]pyridazin-4-one], the maximum response (Emax) – broadly, the maximal effect, on the per cent scale that the assay sets – at 30 µM was 90% and the EC50 – broadly, the concentration that produces a half-maximal response – was 131 nM.

For `[2H]C1([2H])Oc2ccc(OC3CCN(c4nn5c(=O)cc(CC)nc5c(C)c4C)CC3)cc2OC1([2H])[2H]` [Compound 100, 7-(4-((2,3-dihydrobenzo[b][1,4]dioxin-6-yl-2,2,3,3-d4)oxy)piperidin-1-yl)-2-ethyl-8,9-dimethyl-4H-pyrimido[1,2-b]pyridazin-4-one], the Emax at 30 µM came out at 89% and the EC50 stood at 52 nM.

As to `[2H]C1(Oc2ccc3c(c2)OC([2H])([2H])C([2H])([2H])O3)CCN(c2nn3c(=O)cc(CC4CCCC4)nc3c(C)c2C)CC1` [Compound 101, 2-(cyclopentylmethyl)-7-(4-((2,3-dihydrobenzo[b][1,4]dioxin-6-yl-2,2,3,3-d4)oxy)piperidin-1-yl-4-d)-8,9-dimethyl-4H-pyrimido[1,2-b]pyridazin-4-one], the Emax at 30 µM was determined as 81% and the EC50 was 1470 nM.

As for `[2H]C1(Oc2ccc3c(c2)OC([2H])([2H])C([2H])([2H])O3)CCN(c2nn3c(=O)ccnc3c(C)c2COC)CC1` [Compound 102, 7-(4-((2,3-dihydrobenzo[b][1,4]dioxin-6-yl-2,2,3,3-d4)oxy)piperidin-1-yl-4-d)-8-(methoxymethyl)-9-methyl-4H-pyrimido[1,2-b]pyridazin-4-one], the Emax at 30 µM was determined as 94% and the EC50 was 170 nM.

Turning to `[2H]C1(Oc2ccc3c(c2)OC([2H])([2H])C([2H])([2H])O3)CCN(c2nn3c(=O)ccnc3c(COC)c2C)CC1` [Compound 103, 7-(4-((2,3-dihydrobenzo[b][1,4]dioxin-6-yl-2,2,3,3-d4)oxy)piperidin-1-yl-4-d)-9-(methoxymethyl)-8-methyl-4H-pyrimido[1,2-b]pyridazin-4-one], the Emax at 30 µM was determined as 78% and the EC50 came to 455 nM.

With `[2H]C1(Oc2ccc3c(c2)OC([2H])([2H])C([2H])([2H])O3)CCN(c2nn3c(=O)ccnc3c(C)c2C2CC2)CC1` [Compound 104, 8-cyclopropyl-7-(4-((2,3-dihydrobenzo[b][1,4]dioxin-6-yl-2,2,3,3-d4)oxy)piperidin-1-yl-4-d)-9-methyl-4H-pyrimido[1,2-b]pyridazin-4-one], the Emax at 30 µM amounted to 87% and the EC50 came out at 1410 nM.

Turning to `[2H]C1([2H])Oc2ccc(OC3CCN(c4nn5c(=O)ccnc5c(C)c4C4CC4)CC3)cc2OC1([2H])[2H]` [Compound 105, 8-cyclopropyl-7-(4-((2,3-dihydrobenzo[b][1,4]dioxin-6-yl-2,2,3,3-d4)oxy)piperidin-1-yl)-9-methyl-4H-pyrimido[1,2-b]pyridazin-4-one], the maximal effect (Emax) at 30 µM worked out at 81% and the 50% effective concentration (EC50) came to 1700 nM.

Take `Cc1cc2nccc(=O)n2nc1N1CC[C@H](Oc2ccc3c(c2)OCCO3)C[C@H]1C` [Compound 108, 7-((2R,4S)-4-((2,3-Dihydrobenzo[b][1,4]dioxin-6-yl)oxy)-2-methylpiperidin-1-yl)-8-methyl-4H-pyrimido[1,2-b]pyridazin-4-one]: the Emax at 30 µM stood at 99%.

Take `[2H]C1(Oc2ccc3c(c2)OC([2H])([2H])C([2H])([2H])O3)CCN(c2nn3c(=O)cc(COC)nc3cc2C)CC1` [Compound 109, 7-(4-((2,3-dihydrobenzo[b][1,4]dioxin-6-yl-2,2,3,3-d4)oxy)piperidin-1-yl-4-d)-2-(methoxymethyl)-8-methyl-4H-pyrimido[1,2-b]pyridazin-4-one]: the Emax at 30 µM turned out to be 97% and the EC50 stood at 19 nM.

On to `[2H]C1(Oc2ccc3c(c2)OC([2H])([2H])C([2H])([2H])O3)CCN(c2nn3c(=O)cc(COC)nc3c(C)c2C)CC1` [Compound 110, 7-(4-((2,3-dihydrobenzo[b][1,4]dioxin-6-yl-2,2,3,3-d4)oxy)piperidin-1-yl-4-d)-2-(methoxymethyl)-8,9-dimethyl-4H-pyrimido[1,2-b]pyridazin-4-one], for which the Emax at 30 µM is 80% and the half-maximal effective concentration (EC50) amounted to 44 nM.

For `[2H]C1([2H])Oc2ccc(O[C@@H]3CCN(c4nn5c(=O)ccnc5cc4C)C[C@@H]3F)cc2OC1([2H])[2H]` [Compound 111, 7-((3S,4R)-4-((2,3-dihydrobenzo[b][1,4]dioxin-6-yl-2,2,3,3-d4)oxy)-3-fluoropiperidin-1-yl)-8-methyl-4H-pyrimido[1,2-b]pyridazin-4-one], the Emax at 30 µM came out at 106% and the EC50 stood at 67 nM.

Regarding `[2H]C1([2H])Oc2ccc(O[C@H]3CCN(c4nn5c(=O)ccnc5cc4C)C[C@H]3F)cc2OC1([2H])[2H]` [Compound 112, 7-((3R,4S)-4-((2,3-dihydrobenzo[b][1,4]dioxin-6-yl-2,2,3,3-d4)oxy)-3-fluoropiperidin-1-yl)-8-methyl-4H-pyrimido[1,2-b]pyridazin-4-one], the maximum response (Emax) at 30 µM is 108% and the EC50 is 75 nM.

Take `Cc1cc2nccc(=O)n2nc1N1CC[C@@H](Oc2ccc3c(c2)OCCO3)C[C@H]1C` [Compound 116, 7-((2R,4R)-4-((2,3-dihydrobenzo[b][1,4]dioxin-6-yl)oxy)-2-methylpiperidin-1-yl)-8-methyl-4H-pyrimido[1,2-b]pyridazin-4-one]: the maximum response (Emax) at 30 µM was 71% and the EC50 came to 1330 nM.

On to `[2H]C1([2H])Oc2ccc(O[C@H]3CCN(c4nn5c(=O)ccnc5c(C)c4C)C[C@@H]3F)cc2OC1([2H])[2H]` [Compound 117, 7-((3S,4S)-4-((2,3-dihydrobenzo[b][1,4]dioxin-6-yl-2,2,3,3-d4)oxy)-3-fluoropiperidin-1-yl)-8,9-dimethyl-4H-pyrimido[1,2-b]pyridazin-4-one], for which the Emax at 30 µM stood at 93% and the EC50 was determined as 326 nM.

Take `[2H]C1([2H])Oc2ccc(O[C@@H]3CCN(c4nn5c(=O)ccnc5c(C)c4C)C[C@@H]3F)cc2OC1([2H])[2H]` [Compound 118, 7-((3S,4R)-4-((2,3-dihydrobenzo[b][1,4]dioxin-6-yl-2,2,3,3-d4)oxy)-3-fluoropiperidin-1-yl)-8,9-dimethyl-4H-pyrimido[1,2-b]pyridazin-4-one]: the maximal response (Emax) at 30 µM is 115% and the EC50 stood at 34 nM.

In the case of `[2H]C1([2H])Oc2ccc(O[C@H]3CCN(c4nn5c(=O)ccnc5c(C)c4C)C[C@H]3F)cc2OC1([2H])[2H]` [Compound 119, 7-((3R,4S)-4-((2,3-dihydrobenzo[b][1,4]dioxin-6-yl-2,2,3,3-d4)oxy)-3-fluoropiperidin-1-yl)-8,9-dimethyl-4H-pyrimido[1,2-b]pyridazin-4-one], the Emax at 30 µM was found to be 114% and the EC50 worked out at 51 nM.

With `[2H]C1([2H])Oc2ccc(O[C@H]3CCN(c4nn5c(=O)cc(COC)nc5c(C)c4C)C[C@@H]3F)cc2OC1([2H])[2H]` [Compound 120, 7-((3S,4S)-4-((2,3-dihydrobenzo[b][1,4]dioxin-6-yl-2,2,3,3-d4)oxy)-3-fluoropiperidin-1-yl)-2-(methoxymethyl)-8,9-dimethyl-4H-pyrimido[1,2-b]pyridazin-4-one], the Emax at 30 µM was 106% and the EC50 was 162 nM.

On to `[2H]C1([2H])Oc2ccc(O[C@@H]3CCN(c4nn5c(=O)cc(COC)nc5c(C)c4C)C[C@@H]3F)cc2OC1([2H])[2H]` [Compound 121, 7-((3S,4R)-4-((2,3-dihydrobenzo[b][1,4]dioxin-6-yl-2,2,3,3-d4)oxy)-3-fluoropiperidin-1-yl)-2-(methoxymethyl)-8,9-dimethyl-4H-pyrimido[1,2-b]pyridazin-4-one], for which the Emax at 30 µM came to 111% and the EC50 is 42 nM.

As to `[2H]C1([2H])Oc2ccc(O[C@H]3CCN(c4nn5c(=O)cc(COC)nc5c(C)c4C)C[C@H]3F)cc2OC1([2H])[2H]` [Compound 122, 7-((3R,4S)-4-((2,3-dihydrobenzo[b][1,4]dioxin-6-yl-2,2,3,3-d4)oxy)-3-fluoropiperidin-1-yl)-2-(methoxymethyl)-8,9-dimethyl-4H-pyrimido[1,2-b]pyridazin-4-one], the Emax at 30 µM was 111% and the EC50 is 94 nM.

`CNc1c(C)c(N2CCC(Oc3ccc4c(c3)OCCO4)CC2)nn2c(=O)ccnc12` [Compound 123, 7-(4-((2,3-dihydrobenzo[b][1,4]dioxin-6-yl)oxy)piperidin-1-yl)-8-methyl-9-(methylamino)-4H-pyrimido[1,2-b]pyridazin-4-one]: the Emax at 30 µM stood at 89% and the EC50 came to 556 nM.

Turning to `[2H]C1([2H])Oc2ccc(O[C@@H]3CCN(c4nn5c(=O)cc(COC)nc5c(C)c4C)C[C@H]3F)cc2OC1([2H])[2H]` [Compound 124, 7-((3R,4R)-4-((2,3-dihydrobenzo[b][1,4]dioxin-6-yl-2,2,3,3-d4)oxy)-3-fluoropiperidin-1-yl)-2-(methoxymethyl)-8,9-dimethyl-4H-pyrimido[1,2-b]pyridazin-4-one], the Emax at 30 µM is 109% and the EC50 turned out to be 101 nM.

The values above are taken from US11884676B2, “Substituted pyrimido[1,2-b]pyridazines as positive allosteric modulators of the muscarinic acetylcholine receptor M4” (Vanderbilt University, priority 2020, dated 2024).
